In ChEMBL document CHEMBL1134923, “Novel semi-synthetic glycopeptide antibiotics active against methicillin-resistant staphylococcus aureus (MRSA) and vancomycin-resistant Enterococci (VRE): doubly-modified water-soluble derivatives of chloroorienticin B” (Bioorg Med Chem Lett, 2002):
In brackets after ≈: the same amount, converted by molar mass.

Experiments:
Staphylococcus aureus = test: Minimum Inhibitory Concentration against Staphylococcus aureus SR-3637 (MRSA) was determined; format: functional
Enterococcus faecium = test: Minimum Inhibitory Concentration against Enterococcus faecium SR-7917 (VRE) was determined; format: functional
Enterococcus faecalis = test: Minimum Inhibitory Concentration against Enterococcus faecalis SR-7914 (VRE) was determined; format: functional
[1] = Solubility in water was determined; format: physicochemical

SMILES | MIC (Staphylococcus aureus) | MIC (Enterococcus faecium) | MIC (Enterococcus faecalis) | Solubility [1]
CN[C@H](CC(C)C)C(=O)N[C@H]1C(=O)N[C@@H](CC(N)=O)C(=O)N[C@H]2C(=O)NC3C(=O)NC(C(=O)N[C@@H](C(=O)O)c4cc(O)cc(O)c4-c4cc3ccc4O)[C@H](O[C@H]3C[C@](C)(N)[C@@H](O)[C@H](C)O3)c3ccc(c(Cl)c3)Oc3cc2cc(c3O[C@@H]2O[C@H](CO)[C@@H](O)[C@H](O)[C@H]2O)Oc2ccc(cc2Cl)[C@H]1O (some centres not stated) | 0.78 µg/mL (≈ 0.538 µM) | > 100 µg/mL | > 100 µg/mL | > 10%
CN[C@H](CC(C)C)C(=O)N[C@H]1C(=O)N[C@@H](CC(N)=O)C(=O)N[C@H]2C(=O)NC3C(=O)NC(C(=O)N[C@@H](C(=O)O)c4cc(O)cc(O)c4-c4cc3ccc4O)[C@H](O[C@H]3C[C@](C)(NCc4ccc(/C=C/c5ccc(Cl)cc5)cc4)[C@@H](O)[C@H](C)O3)c3ccc(c(Cl)c3)Oc3cc2cc(c3O[C@@H]2O[C@H](CO)[C@@H](O)[C@H](O)[C@H]2O)Oc2ccc(cc2Cl)[C@H]1O (some centres not stated) | 0.2 µg/mL (≈ 0.119 µM) | 6.25 µg/mL (≈ 3.73 µM) | 6.25 µg/mL (≈ 3.73 µM) | < 1%
CN[C@H](CC(C)C)C(=O)N[C@H]1C(=O)N[C@@H](CC(N)=O)C(=O)N[C@H]2C(=O)NC3C(=O)NC(C(=O)N[C@@H](C(=O)O)c4cc(O)cc(O)c4-c4cc3ccc4O)[C@H](O[C@H]3C[C@](C)(NCc4ccc(-c5ccc(-c6ccccc6)cc5)cc4)[C@@H](O)[C@H](C)O3)c3ccc(c(Cl)c3)Oc3cc2cc(c3O[C@@H]2O[C@H](CO)[C@@H](O)[C@H](O)[C@H]2O)Oc2ccc(cc2Cl)[C@H]1O (some centres not stated) | 0.39 µg/mL (≈ 0.231 µM) | 3.13 µg/mL (≈ 1.85 µM) | 12.5 µg/mL (≈ 7.39 µM) | 
CN[C@H](CC(C)C)C(=O)N[C@H]1C(=O)N[C@@H](CC(N)=O)C(=O)N[C@H]2C(=O)N[C@H]3C(=O)N[C@H](C(=O)N[C@H](C(=O)O)c4cc(O)cc(O)c4-c4cc3ccc4O)[C@H](O)c3ccc(c(Cl)c3)Oc3cc2cc(c3O[C@@H]2O[C@H](CO)[C@@H](O)[C@H](O)[C@H]2O[C@H]2C[C@](C)(N)[C@H](O)[C@H](C)O2)Oc2ccc(cc2Cl)[C@H]1O [VANCOMYCIN] | 1.56 µg/mL (≈ 1.08 µM) | > 100 µg/mL | > 100 µg/mL | > 10%

Second part, led by results:

MIC (Staphylococcus aureus) | MIC (Enterococcus faecium) | MIC (Enterococcus faecalis) | SMILES | Solubility [1]
0.2 µg/mL (≈ 0.123 µM) | 6.25 µg/mL (≈ 3.83 µM) | 12.5 µg/mL (≈ 7.66 µM) | CCCCCCCCCCCCCN[C@@]1(C)C[C@H](O[C@@H]2c3ccc(c(Cl)c3)Oc3cc4cc(c3O[C@@H]3O[C@H](CO)[C@@H](O)[C@H](O)[C@H]3O)Oc3ccc(cc3Cl)[C@@H](O)[C@@H](NC(=O)[C@@H](CC(C)C)NC)C(=O)N[C@@H](CC(N)=O)C(=O)N[C@H]4C(=O)NC3C(=O)NC2C(=O)N[C@@H](C(=O)O)c2cc(O)cc(O)c2-c2cc3ccc2O)O[C@@H](C)[C@@H]1O (some centres not stated) | 
0.2 µg/mL (≈ 0.119 µM) | 6.25 µg/mL (≈ 3.73 µM) | 12.5 µg/mL (≈ 7.47 µM) | CN[C@H](CC(C)C)C(=O)N[C@H]1C(=O)N[C@@H](CC(N)=O)C(=O)N[C@H]2C(=O)NC3C(=O)NC(C(=O)N[C@@H](C(=O)O)c4cc(O)cc(O)c4-c4cc3ccc4O)[C@H](O[C@H]3C[C@](C)(NCc4ccc(C#Cc5ccc(Cl)cc5)cc4)[C@@H](O)[C@H](C)O3)c3ccc(c(Cl)c3)Oc3cc2cc(c3O[C@@H]2O[C@H](CO)[C@@H](O)[C@H](O)[C@H]2O)Oc2ccc(cc2Cl)[C@H]1O (some centres not stated) | 
0.39 µg/mL (≈ 0.236 µM) | 12.5 µg/mL (≈ 7.56 µM) | 25 µg/mL (≈ 15.1 µM) | CCCCCCCOc1ccc(CN[C@@]2(C)C[C@H](O[C@@H]3c4ccc(c(Cl)c4)Oc4cc5cc(c4O[C@@H]4O[C@H](CO)[C@@H](O)[C@H](O)[C@H]4O)Oc4ccc(cc4Cl)[C@@H](O)[C@@H](NC(=O)[C@@H](CC(C)C)NC)C(=O)N[C@@H](CC(N)=O)C(=O)N[C@H]5C(=O)NC4C(=O)NC3C(=O)N[C@@H](C(=O)O)c3cc(O)cc(O)c3-c3cc4ccc3O)O[C@@H](C)[C@@H]2O)cc1 (some centres not stated) | 
0.1 µg/mL (≈ 0.0606 µM) | 6.25 µg/mL (≈ 3.79 µM) | 12.5 µg/mL (≈ 7.58 µM) | CN[C@H](CC(C)C)C(=O)N[C@H]1C(=O)N[C@@H](CC(N)=O)C(=O)N[C@H]2C(=O)NC3C(=O)NC(C(=O)N[C@@H](C(=O)O)c4cc(O)cc(O)c4-c4cc3ccc4O)[C@H](O[C@H]3C[C@](C)(NCc4ccc(-c5ccc(Cl)cc5)cc4)[C@@H](O)[C@H](C)O3)c3ccc(c(Cl)c3)Oc3cc2cc(c3O[C@@H]2O[C@H](CO)[C@@H](O)[C@H](O)[C@H]2O)Oc2ccc(cc2Cl)[C@H]1O (some centres not stated) | 
